Tests used:
GGTase = GGTase (Homo sapiens, UniProt P53609); conditions: cited from earlier work
[1] = tested on: lactate dehydrogenase (LDH) release into culture media; assay: CytoTox-ONE Homogenous Membrane Integrity Assay (LDH release); assay type: cell-based; conditions: conclusion from LDH release; FIG. 4
Ftase = Ftase (Homo sapiens, UniProt P49356); conditions: cited from earlier work
[2] = tested on: PAI-1 gene expression in TM cell lines; assay: TGFβ2-induced PAI-1 gene expression by QRT-PCR in TM cells; assay type: cell-based, human; conditions: TM cell lines treated with TGFβ2 and inhibitor, versus TGFβ2 alone; FIG. 3
From the text: (§1) Total RNA was isolated from TM cells using Qiagen RNeasy 96 system according to the manufacturer's instructions (Qiagen).
Differential expression of CTGF and PAI-1 were verified by quantitative real-time RT-PCR (QRT-PCR) using an ABI Prism® 7700 Sequence Detection System (Applied Biosystems) essentially as previously described (Shepard et al., IOVS, 2001, Vol. 42:3173). Primers for CTGF amplification were designed using Primer Express software (Applied Biosystems) to anneal to adjacent exons of Genbank accession #NM_001901.1 ([…] (SEQ ID NO: 1), nts 1667-1689 and […] (SEQ ID NO: 2), nts 1723-1742, with probe sequence 6FAM-[…]-TAMRA (SEQ ID NO: 3)) and generate a 76-bp amplicon. Primers for PAI-1 amplification were purchased from ABI (Hs00167155 ml) and correspond to Genbank accession #NM_000602.1. […] Quantification of relative RNA concentrations was done using the delta delta Ct method as described in PE Biosystems User Bulletin #2. Levels of amplified products were expressed as mean±SEM of quadruplicate QRT-PCR assays. […]
(§2) In this example, the effectiveness of GGTase and FTase inhibitors on CTGF gene expression in cultured human trabecular meshwork cells was studied. In this experiment, the CTGF/18S cDNA levels were measured and compared by QRT-PCR according to the protocol of Example 1.

[3] = tested on: CTGF gene expression in cultured human trabecular meshwork cells; assay: Basal and TGFβ2-induced CTGF gene expression by QRT-PCR in TM cells; assay type: cell-based; conditions: for measured CTGF levels (CTGF/18S cDNA) compared to TGFβ2-treated cells: TM cells treated with TGFβ2 and inhibitor, versus TGFβ2 alone, FIGS. 1 and 2
From the text: as §1
Differential expression of CTGF and PAI-1 were verified by quantitative real-time RT-PCR (QRT-PCR) using an ABI Prism® 7700 Sequence Detection System (Applied Biosystems) essentially as previously described (Shepard et al., IOVS, 2001, Vol. 42:3173). Primers for CTGF amplification were designed using Primer Express software (Applied Biosystems) to anneal to adjacent exons of Genbank accession #NM_001901.1 ([…] (SEQ ID NO: 1), nts 1667-1689 and […] (SEQ ID NO: 2), nts 1723-1742, with probe sequence 6FAM-[…]-TAMRA (SEQ ID NO: 3)) and generate a 76-bp amplicon. Primers for PAI-1 amplification were purchased from ABI (Hs00167155 ml) and correspond to Genbank accession #NM_000602.1. Amplification of CTGF or PAI-1 was normalized to 18S ribosomal RNA expression using primers designed to the 18S rRNA gene (GenBank accession #X03205 […] (SEQ ID NO: 4), nts 1680-1700 and […] (SEQ ID NO: 5), nts 1730-1749, with probe sequence 6FAM-[…]-MGBNFQ (SEQ ID NO: 6)) which generates a 69-bp amplicon. CTGF or PAI-1 QRT-PCR was performed in multiplex with 18S primer/probe sets in a 50 ul final volume consisting of 40 nM 18S or 900 nM CTGF or PAI-1 primers; 100 nM 18S probe or 100 nM CTGF or 250 nM PAI-1 probe; 5 ul RNA; 1× Multiscribe and RNase Inhibitor Mix (ABI); and 1× TaqMan® Universal Mix (ABI). Thermal cycling conditions consisted of 48° C., 30 min, 95° C. 10 min followed by 40 cycles at 95° C., 15 sec, 60° C., 1 min. […] Quantification of relative RNA concentrations was done using the delta delta Ct method as described in PE Biosystems User Bulletin #2. Levels of amplified products were expressed as mean±SEM of quadruplicate QRT-PCR assays. […]
as §2

SMILES	IC50 (GGTase)	cytotoxicity [1]	IC50 (Ftase)	measured PAI-1 compared to TGFβ2-treated cells [2]	measured CTGF levels (CTGF/18S cDNA) compared to TGFβ2-treated cells [3]	measured CTGF levels (CTGF/18S cDNA) compared to vehicle alone ([3]; TM cell cultures treated with TGFβ2 and inhibitor, versus vehicle alone, FIG. 1)
CSCC[C@H](NC(=O)c1ccc(NC[C@@H](N)CS)cc1-c1ccccc1)C(=O)O [FTI-276]	50 nM	–	–	–	–	–
COC(=O)[C@H](CCSC)NC(=O)c1ccc(NC[C@@H](N)CS)cc1-c1ccccc1 [FTI-277]	–	relatively low cytotoxicity	100 nM	able to produce drops in measured PAI-1	produces a drop in measured CTGF levels	–
CSCC[C@H](NC(=O)c1ccc(NC(=O)[C@@H](N)CS)cc1)C(=O)O [Ftase Inhibitor II]	–	–	50 nM	–	–	–
CSCC[C@H](NC(=O)[C@H](Cc1ccccc1)NC[C@@H](NC[C@@H](N)CS)C(C)C)C(=O)O [Ftase Inhibitor I]	790 nM	–	21 nM	–	–	–
COC(=O)[C@H](CC(C)C)NC(=O)c1ccc(NC[C@@H](N)CS)cc1-c1ccccc1 [GGTI-286]	2000 nM	–	–	–	–	–
CC(C)C[C@H](NC(=O)c1ccc(NC[C@@H](N)CS)cc1-c1cccc2ccccc12)C(=O)O [GGTI-297]	50 nM	–	200 nM	–	–	–
COC(=O)[C@H](CC(C)C)NC(=O)c1ccc(NC[C@@H](N)CS)cc1-c1cccc2ccccc12 [GGTI-298]	3000 nM	–	–	–	–	–
CC(C)C[C@H](NC(=O)c1ccc(NCc2cnc[nH]2)cc1-c1cccc2ccccc12)C(=O)O [GGTI-2133]	38 nM	relatively low cytotoxicity	5400 nM	able to produce drops in measured PAI-1	dramatically reduced CTGF levels	lower than with vehicle alone
COC(=O)[C@H](CC(C)C)NC(=O)c1ccc(NCc2cnc[nH]2)cc1-c1cccc2ccccc12 [GGTI-2147]	500 nM	–	30000 nM	–	–	–
